# According to US11648233B2, “Heripenes with pain-relieving effect, active substances of Hericium erinaceus mycelium and the preparation method thereof, and pharmaceutical composition containing the heripenes or active substances” (GRAPE KING BIO LTD., priority 2015, dated 2023):
# System: P2R (P2-purinoceptor) in human osteosarcoma HOS cells
# Experiment: Inhibition of ATP-induced P2R calcium signals (Fura-2 fluorescence) in HOS cells
# Assay type: cell-based
# Conditions: erinacine S 5, 10 and 15 μg/ml (FIG. 7B)
# Method: Cells were filled with a fluorescent dye-based calcium indicator, “Fura-2, AM cell permeant” (ThermoFisher Scientific, Waltham, Mass., U.S.A.), and the variation of the fluorescence level at an emission wavelength of 505 nm was determined at two excitation wavelengths of 340 nm and 380 nm using a fluorescence spectrometer (SPEX® 1681, Spec Industries, Inc., New Jersey, U.S.A.). During the experiment, ATP was added to cells to stimulate the P2R expression, and the variation of the fluorescence level was observed. Finally, 1 wt. % digitonin was added to enable the cells to become transparent, and the maximum fluorescence ratio (Rmax) was obtained at a concentration of 2 mM Ca^2+. Ethyleneglycol bis(2-aminoethylether)tetraacetic acid (EGTA) then was added to chelate with the calcium ions to obtain a minimum fluorescence ratio (Rmin). The dissociation coefficient (Kd) of fura-2 to Ca^2+ is 225 nM. The intracellular calcium-ion concentration was calculated using formulas (Grynkiewicz et al., J. Biol. Chem. 1985. 260(6):3440-3450). […]
# Comparing the P2R-correlated calcium signals in three cell lines stimulated with ATP, the variation of the calcium-ion concentration in human osteosarcoma HOS cells was the most significant, and thus the influence of the agent on P2R can clearly be determined. […]
smiles,measurement,value
CC(C)C1=C2C3CCC4=C(O)C(=O)C5(O)COC6OC(C4C65O)C3(C)CCC2(C)CC1 (stereo not shown) [erinacine S],inhibition effect on the variation of the intracellular calcium-ion concentration induced by ATP,more significant in a dosage-dependent manner
